Measured values: ChEMBL document CHEMBL3045832, “3-Aryl-2-{4-[4-(2,4-dioxothiazolidin-5-ylmethyl)phenoxy]-phenyl}-acrylic acid alkyl ester: synthesis and antihyperglycemic evaluation” (2011)

What was measured:
Type in all cases: functional
Design in all cases: scale not given: the % may be the effect or the level left
[1] = tested on: Rattus norvegicus; experiment: Antihyperglycemic activity in streptozotocin-induced Rattus norvegicus Wistar (rat) diabetic model assessed as reduction in plasma glucose level at 25 umol/kg, po for 15 measured after treatment
[2] = tested on: Rattus norvegicus; experiment: Antihyperglycemic activity in streptozotocin-induced Rattus norvegicus Wistar (rat) diabetic model assessed as reduction in plasma glucose level at 15 umol/kg, po for 9 weeks measured at 10 day
[3] = tested on: Rattus norvegicus; experiment: Antihyperglycemic activity in streptozotocin-induced Rattus norvegicus Wistar (rat) diabetic model assessed as reduction in plasma glucose level at 20 umol/kg, po for 9 weeks measured at 3 day
[4] = tested on: Rattus norvegicus; experiment: Antihyperglycemic activity in streptozotocin-induced Rattus norvegicus Wistar (rat) diabetic model assessed as reduction in plasma glucose level at 25 umol/kg, po for 9 weeks measured at 10 day
[5] = tested on: Rattus norvegicus; experiment: Antihyperglycemic activity in streptozotocin-induced Rattus norvegicus Wistar (rat) diabetic model assessed as reduction in plasma glucose level at 20 umol/kg, po for 9 weeks measured at 10 day
[6] = tested on: Rattus norvegicus; experiment: Antihyperglycemic activity in streptozotocin-induced Rattus norvegicus Wistar (rat) diabetic model assessed as reduction in plasma glucose level at 15 umol/kg, po for 9 weeks measured at 15 day
[7] = tested on: Rattus norvegicus; experiment: Antihyperglycemic activity in streptozotocin-induced Rattus norvegicus Wistar (rat) diabetic model assessed as reduction in plasma glucose level at 15 umol/kg, po for 9 weeks measured on day 7
[8] = tested on: Rattus norvegicus; experiment: Antihyperglycemic activity in streptozotocin-induced Rattus norvegicus Wistar (rat) diabetic model assessed as reduction in plasma glucose level at 30 umol/kg, po for 9 weeks measured at 10 day
[9] = tested on: Rattus norvegicus; experiment: Antihyperglycemic activity in streptozotocin-induced Rattus norvegicus Wistar (rat) diabetic model assessed as reduction in plasma glucose level at 30 umol/kg, po for 9 weeks measured at 3 day
[10] = tested on: Rattus norvegicus; experiment: Antihyperglycemic activity in streptozotocin-induced Rattus norvegicus Wistar (rat) diabetic model assessed as reduction in plasma glucose level at 20 umol/kg, po for 9 weeks measured on day 7
[11] = tested on: Rattus norvegicus; experiment: Antihyperglycemic activity in streptozotocin-induced Rattus norvegicus Wistar (rat) diabetic model assessed as reduction in plasma glucose level at 25 umol/kg, po for 9 weeks measured at 15 day
[12] = tested on: Rattus norvegicus; experiment: Antihyperglycemic activity in streptozotocin-induced Rattus norvegicus Wistar (rat) diabetic model assessed as reduction in plasma glucose level at 25 umol/kg, po for 9 weeks measured on day 7
[13] = tested on: Rattus norvegicus; experiment: Antihyperglycemic activity in streptozotocin-induced Rattus norvegicus Wistar (rat) diabetic model assessed as reduction in plasma glucose level at 30 umol/kg, po for 9 weeks measured on day 7
[14] = tested on: Rattus norvegicus; experiment: Antihyperglycemic activity in streptozotocin-induced Rattus norvegicus Wistar (rat) diabetic model assessed as reduction in plasma glucose level at 25 umol/kg, po for 9 weeks measured at 3 day
[15] = tested on: Rattus norvegicus; experiment: Antihyperglycemic activity in streptozotocin-induced Rattus norvegicus Wistar (rat) diabetic model assessed as reduction in plasma glucose level at 20 umol/kg, po for 9 weeks measured at 15 day
[16] = tested on: Rattus norvegicus; experiment: Antihyperglycemic activity in streptozotocin-induced Rattus norvegicus Wistar (rat) diabetic model assessed as reduction in plasma glucose level at 15 umol/kg, po for 9 weeks measured at 3 day
[17] = tested on: Rattus norvegicus; experiment: Antihyperglycemic activity in streptozotocin-induced Rattus norvegicus Wistar (rat) diabetic model assessed as reduction in plasma glucose level at 30 umol/kg, po for 9 weeks measured at 15 day

CCOC(=O)/C(=C/c1ccc(OC)c(OC)c1)c1ccc(Oc2ccc(CC3SC(=O)NC3=O)cc2)cc1 (stereo not given)
Activity [1]: 37.15%

CCOC(=O)/C(=C/c1ccc(Br)cc1)c1ccc(Oc2ccc(CC3SC(=O)NC3=O)cc2)cc1 (stereo not given)
Activity [1]: 13.63%

CCCOC(=O)/C(=C/c1ccc(Br)cc1)c1ccc(Oc2ccc(CC3SC(=O)NC3=O)cc2)cc1 (stereo not given)
Activity [1]: 13.42%

COC(=O)/C(=C/c1ccccc1)c1ccc(Oc2ccc(CC3SC(=O)NC3=O)cc2)cc1 (stereo not given)
Activity [1]: 10.74%

CCOC(=O)/C(=C/c1ccccc1)c1ccc(Oc2ccc(CC3SC(=O)NC3=O)cc2)cc1 (stereo not given)
Activity [1]: 9.8%

CCCOC(=O)/C(=C/c1ccccc1)c1ccc(Oc2ccc(CC3SC(=O)NC3=O)cc2)cc1 (stereo not given)
Activity [1]: 8.6%

COC(=O)/C(=C/c1ccc(OC)cc1)c1ccc(Oc2ccc(CC3SC(=O)NC3=O)cc2)cc1 (stereo not given)
Activity [1]: 16.3%

CCOC(=O)/C(=C/c1ccc(OC)cc1)c1ccc(Oc2ccc(CC3SC(=O)NC3=O)cc2)cc1 (stereo not given)
Activity [1]: 14.61%

CCCOC(=O)/C(=C/c1ccc(OC)cc1)c1ccc(Oc2ccc(CC3SC(=O)NC3=O)cc2)cc1 (stereo not given)
Activity [1]: 13%

COC(=O)/C(=C/c1ccc(OC)cc1OC)c1ccc(Oc2ccc(CC3SC(=O)NC3=O)cc2)cc1 (stereo not given)
Activity [1]: 46.13%

CCOC(=O)/C(=C/c1ccc(OC)cc1OC)c1ccc(Oc2ccc(CC3SC(=O)NC3=O)cc2)cc1 (stereo not given)
Activity [1]: 46.03%

CCCOC(=O)/C(=C/c1ccc(OC)cc1OC)c1ccc(Oc2ccc(CC3SC(=O)NC3=O)cc2)cc1 (stereo not given)
Activity [1]: 45.91%

COC(=O)/C(=C/c1ccc(OC)c(OC)c1)c1ccc(Oc2ccc(CC3SC(=O)NC3=O)cc2)cc1 (stereo not given)
Activity [1]: 38.11%

CCCOC(=O)/C(=C/c1ccc(OC)c(OC)c1)c1ccc(Oc2ccc(CC3SC(=O)NC3=O)cc2)cc1 (stereo not given)
Activity [1]: 35.85%

COC(=O)/C(=C/c1cccc(OC)c1OC)c1ccc(Oc2ccc(CC3SC(=O)NC3=O)cc2)cc1 (stereo not given)
Activity [1]: 37.05%

CCCOC(=O)/C(=C/c1cccc(OC)c1OC)c1ccc(Oc2ccc(CC3SC(=O)NC3=O)cc2)cc1 (stereo not given)
Activity [2]: 15.53%
Activity [3]: 10.91%
Activity [4]: 25.53%
Activity [5]: 17.26%
Activity [6]: 18.47%
Activity [7]: 11.49%
Activity [1]: 37.24%
Activity [8]: 24.68%
Activity [9]: 19.42%
Activity [10]: 14.56%
Activity [11]: 37.24%
Activity [12]: 21.34%
Activity [13]: 20.87%
Activity [14]: 18.06%
Activity [15]: 21.76%
Activity [16]: 8.38%
Activity [17]: 35.47%

COC(=O)/C(=C/c1ccc(O)cc1)c1ccc(Oc2ccc(CC3SC(=O)NC3=O)cc2)cc1 (stereo not given)
Activity [1]: 18.81%

CCOC(=O)/C(=C/c1ccc(O)cc1)c1ccc(Oc2ccc(CC3SC(=O)NC3=O)cc2)cc1 (stereo not given)
Activity [1]: 18.16%

CCCOC(=O)/C(=C/c1ccc(O)cc1)c1ccc(Oc2ccc(CC3SC(=O)NC3=O)cc2)cc1 (stereo not given)
Activity [1]: 17.48%

COC(=O)/C(=C/c1ccc([N+](=O)[O-])cc1)c1ccc(Oc2ccc(CC3SC(=O)NC3=O)cc2)cc1 (stereo not given)
Activity [1]: 13.26%

CCOC(=O)/C(=C/c1ccc([N+](=O)[O-])cc1)c1ccc(Oc2ccc(CC3SC(=O)NC3=O)cc2)cc1 (stereo not given)
Activity [1]: 13.4%

CCCOC(=O)/C(=C/c1ccc([N+](=O)[O-])cc1)c1ccc(Oc2ccc(CC3SC(=O)NC3=O)cc2)cc1 (stereo not given)
Activity [1]: 12.45%

COC(=O)/C(=C/c1ccc(Br)cc1)c1ccc(Oc2ccc(CC3SC(=O)NC3=O)cc2)cc1 (stereo not given)
Activity [1]: 15.58%

CN(CCOc1ccc(CC2SC(=O)NC2=O)cc1)c1ccccn1 (stereo not given) [ROSIGLITAZONE]
Activity [1]: 56.73%
